Where two headings read alike, the source gives them in different places.

The results in this text go back to patent US6251903A, “Alkyl, azido, alkoxy, and fluoro-substituted and fused quinoxalinediones and the use thereof as glycine receptor antagonist” (priority 2000, dated 2001).

For one assay, the system named is mice. The assay can be described thus: anticonvulsant activity in maximum electroshock seizure (MES) experiments in mice. Format: in vivo, male Swiss/Webster mice. Conditions: for ED50 / ED100: Mus musculus; for ED50: read-out: ED50 (MES); for ED50 as an anticonvulsant in the MES experiment in mice: route not stated. As to the method:
The seizure stimulus parameters were: 50 mA, 60 Hz, rectangular pulse, width 0.8 msec, duration 200 msec. Tonic hind limb extension observed after application of the electrical stimulus was recorded as occurrence of seizure. The drug was applied i.v. as an aqueous Tris (Tromethamine) solution.

The next assay has as its target glycine binding site (Rattus norvegicus, UniProt P35439). The assay is described as follows: affinity for the glycine binding site / glycine/NMDA receptor (Ki; method not stated). From the text: (§1) The binding affinities of quinoxaline-2,3-diones at NMDA receptor glycine sites also were estimated by electrophysiological assays with either cloned rat NMDA receptors expressed in Xenopus oocytes, or non-NMDA receptors expressed in oocytes by whole rat brain poly(A)^+ RNA. […] For NMDA receptors Ki values were approximated by averaging values at three subtype combinations (NR1A/NR2A, NR1A/NR2B, and NR1A/NR2C).

For assay [1], the target named is NMDA receptor glycine sites. The assay can be described thus: electrophysiological assay, cloned rat NMDA receptors expressed in Xenopus oocytes. Type of assay: cell-based. The conditions noted are these: Table II; from electrophysiology using Xenopus oocytes.
Description: as §1

For `O=c1[nH]c2cc(F)c(F)c(F)c2[nH]c1=O` [F F F H, 5,6,7-Trifluoro-1,4-dihydro-2,3-quinoxalinedione], in the assay with mice (iv, Table III, i.v. injection), the ED50 is 4 to 5 mg/kg. For the same compound, in the assay on mice (Table IV, i.v.), the ED100 is 15 to 20 mg/kg, the “ED50 (MES)” value fell in the range of 4 to 5 mg/kg and the “IV peak of action” value is recorded as 2 min. The “% protection after 60 min.” value in the assay on mice (i.v., 10 mg/kg) came to 0%. The “protection against MES after 60 min.” value in the assay with mice (i.v., after 60 min) is reported as “no more protection was observed”. Besides, the Ki at glycine binding site (Table III, read-out: Ki) was 2970 nM.

Turning to `[N-]=[N+]=Nc1c(Cl)cc2[nH]c(=O)c(=O)[nH]c2c1Cl` [Cl N3 Cl H, 6-azido-5,7-dichloro-1,4-dihydroquinoxaline-2,3-dione], the Ki in assay [1] is 536 nM.

As to `O=c1[nH]c2cc(Cl)c(F)c([N+](=O)[O-])c2[nH]c1=O` [NO2 F Cl H, 7-Chloro-6-fluoro-5-nitro-1,4-dihydroquinoxaline-2,3-dione], the ED50 in the assay on mice (iv, Table III, i.v. injection) was 0.9 mg/kg. Besides, the Ki on glycine binding site (Table III, read-out: Ki) was 70 nM.

For the compound `[N-]=[N+]=Nc1c(F)cc2[nH]c(=O)c(=O)[nH]c2c1[N+](=O)[O-]` [NO2 N3 F H, 6-Azido-7-fluoro-5-nitro-1,4-dihydroquinoxaline-2,3-dione], the ED50 in the assay on mice (iv, Table III, i.v. injection) amounted to 7.5 mg/kg. In addition, the Ki was found to be 280 nM in assay [1] and 280 nM on glycine binding site (Table III, read-out: Ki).

In the case of `N#Cc1ccc2nc(O)c(O)nc2c1` [CN, reference compound], at glycine binding site (Table I, read-out: Ki), the Ki worked out at 4890 nM.

For the compound `O=c1[nH]c2cc(F)c(Cl)c([N+](=O)[O-])c2[nH]c1=O` [NO2 Cl F H, 6-Chloro-1,4-dihydro-7-fluoro-5-nitroquinoxaline-2,3-dione], the ED50 with mice (iv, Table III, i.v. injection) is 4 to 5 mg/kg. Also, the Ki at glycine binding site (Table III, read-out: Ki) was 180 nM.

For the compound `CCOc1c(F)cc2[nH]c(=O)c(=O)[nH]c2c1[N+](=O)[O-]` [NO2 OEt F H, 7-Fluoro-6-ethoxy-5-nitro-1,4dihydroquinoxaline-2,3-dione], the Ki in assay [1] stood at 1000 nM.

As to `O=c1[nH]c2cc(Cl)c(Cl)c([N+](=O)[O-])c2[nH]c1=O` [6,7-dichloro-5-nitro-1,4-dihydroquinoxaline-2,3-dione, reference compound], in the assay with mice (Table IV, i.v.), the “ED50 (MES)” value was 4 to 5 mg/kg, the “ED100 (MES)” value was in the range of 7 to 10 mg/kg and the “IV peak of action” value amounted to 5 min. Further, the “% protection after 60 min.” value in the assay with mice (i.v., 10 mg/kg) worked out at 55%. For the same compound, the “ED50 as an anticonvulsant in the MES experiment in mice” value (“ED50 as an anticonvulsant” for short) with mice lay within 4 to 5 mg/kg.

As for `CCSc1c(Cl)cc2[nH]c(=O)c(=O)[nH]c2c1[N+](=O)[O-]` [NO2 SEt Cl H, 7-Chloro-1,4-dihydro-6-ethylthio-5-nitroquinoxaline-2,3-dione], in assay [1], the Ki came out at 500 nM.

`Cc1c(F)cc2[nH]c(=O)c(=O)[nH]c2c1[N+](=O)[O-]` [NO2 Me F H, 7-Fluoro-6-methyl-5-nitro-1,4-dihydro-2,3-quinoxalinedione]: the “ED50 (MES)” value with mice (Table III, i.v. injection) worked out at 2 mg/kg. For the same compound, in the assay with mice, the “ED50 as an anticonvulsant” value is given as 2 mg/kg. Besides, the Ki (in assay [1]; at glycine binding site) was 53 nM each time.

Turning to `O=c1[nH]c2ccc(C(F)(F)F)cc2[nH]c1=O` [CF3, reference compound], the Ki on glycine binding site (Table I, read-out: Ki) turned out to be 360 nM.

As for `Nc1ccc2[nH]c(=O)c(=O)[nH]c2c1` [NH2, reference compound], the Ki result at glycine binding site (Table I) is “inactive”.

As to `Oc1nc2ccccc2nc1O` [H, reference compound], the Ki on glycine binding site (Table I, read-out: Ki) came out at 2470 nM.

Turning to `O=c1[nH]c2cc3ccccc3cc2[nH]c1=O` [H CH=CHCH=CH H, 1,4-dihydrobenzo[g]quinoxaline-2,3-dione], in assay [1], the Ki is 11000 nM.

On to `O=c1[nH]c2cc(Cl)cc(C(F)(F)F)c2[nH]c1=O` [CF3 H Cl H], for which, in the assay on mice (Table IV, i.v.), the ED100 is 30 mg/kg, the ED50 turned out to be 10 mg/kg and the “IV peak of action” value is on record as 30 min. Besides, the “% protection after 60 min.” value with mice (i.v., 30 mg/kg) amounted to 87%. The Ki at glycine binding site (Table IV, read-out: Ki) came out at 395 nM.

On to `Oc1nc2cc(F)c(Cl)c(F)c2nc1O` [F Cl F H, 6-Chloro-5,7-difluoro-1,4-dihydroquinoxaline-2,3-dione], for which the median effective dose (ED50) in the assay with mice (iv, Table III, i.v. injection) amounted to 10 mg/kg. Also, the Ki at glycine binding site was found to be 1000 nM.

`O=c1[nH]c2cc3c(cc2[nH]c1=O)CCC3` [H CH2 CH2 CH2 H, Cyclopento[g]-1,4-dihydroquinoxaline-2,3-dione]: the Ki in assay [1] turned out to be 6300 nM.

On to `N#Cc1c(Cl)c(Cl)cc2[nH]c(=O)c(=O)[nH]c12` [CN Cl Cl H, 5-Cyano-6,7-dichloro-1,4-dihydroquinoxaline-2,3-dione], for which the Ki in assay [1] stood at 15 nM.

As to `[N-]=[N+]=Nc1c(Cl)c(Cl)cc2[nH]c(=O)c(=O)[nH]c12` [N3 Cl Cl H, 5-Azido-6,7-dichloro-1,4-dihydroquinoxaline-2,3-dione], the Ki in assay [1] was found to be 71 nM.

Take `Cc1cc2[nH]c(=O)c(=O)[nH]c2c([N+](=O)[O-])c1Cl` [NO2 Cl Me H, 6-Chloro-7-methyl-5-nitro-1,4-dihydroquinoxaline-2,3-dione]: in the assay with mice, the “ED50 as an anticonvulsant” value turned out to be 2 mg/kg. Also, the Ki (in assay [1]; on glycine binding site) was 27 nM in each case.

Take `O=[N+]([O-])c1ccc2nc(O)c(O)nc2c1` [NO2, reference compound]: the Ki on glycine binding site (Table I, read-out: Ki) came out at 1390 nM.

With `O=c1[nH]c2cc(F)c(F)cc2[nH]c1=O` [H F F H, 6,7-Difluoro-1,4-dihydro-2,3-quinoxalinedione], the ED50 in the assay with mice (iv, Table III, i.v. injection) worked out at 15 mg/kg. At glycine binding site (Table III, read-out: Ki), the Ki came to 8200 nM.

For `Cc1cc2[nH]c(=O)c(=O)[nH]c2cc1C` [H Me Me H, 6,7-Dimethyl-1,4-dihydroquinoxaline-2,3-dione], the Ki in assay [1] was 980 nM.

Consider `O=c1[nH]c2ccc(F)cc2[nH]c1=O` [F, reference compound], for which, at glycine binding site (Table I, read-out: Ki), the Ki was determined as 2880 nM.

With `O=c1[nH]c2cc(C(F)(F)F)cc(Cl)c2[nH]c1=O` [Cl H CF3 H], in the assay with mice (Table IV, i.v.), the ED100 lay within 20 to 25 mg/kg, the ED50 was 10 mg/kg and the “IV peak of action” value came to 15 min. Moreover, in the assay on mice (i.v., 20 mg/kg), the “% protection after 60 min.” value came to 62%. For the same compound, the Ki at glycine binding site (Table IV, read-out: Ki) came out at 320 nM.

`CCc1cc(Br)cc2[nH]c(=O)c(=O)[nH]c12` [Et H Br H, 7-Bromo-5-ethyl-1,4-dihydroquinoxaline-2,3-dione]: the Ki in assay [1] was 900 nM.

With `O=c1[nH]c2cc(C(F)(F)F)cc([N+](=O)[O-])c2[nH]c1=O` [NO2 H CF3 H, 7-trifluoromethyl-5-nitro-1,4-dihydroquinoxaline-2,3-dione], in the assay with mice (Table IV, i.v.), the ED100 was determined as 40 mg/kg, the ED50 stood at 17 mg/kg and the “IV peak of action” value stood at 30 min. Also, the “% protection after 60 min.” value in the assay with mice (i.v., 40 mg/kg) is recorded as 62%. For the same compound, at glycine binding site (Table IV, read-out: Ki), the Ki was 95 nM.

On to `O=c1[nH]c2cc3c(c([N+](=O)[O-])c2[nH]c1=O)CCC3` [NO2 CH2 CH2 CH2 H, 5-Nitrocyclopento[g]-1,4-dihydroquinoxaline-2,3-dione], for which the Ki in assay [1] came out at 800 nM.

As for `Cc1cc([N+](=O)[O-])c2[nH]c(=O)c(=O)[nH]c2c1` [NO2 H Me H, 7-Methyl-5-nitro-1,4-dihydro-2,3-quinoxalinedione], in assay [1], the Ki came out at 1200 nM.

Regarding `N#Cc1c(Cl)c([N+](=O)[O-])cc2[nH]c(=O)c(=O)[nH]c12` [CN Cl NO2 H, 6-Chloro-5-cyano-7-nitro-1,4-dihydroquinoxaline-2,3-dione], the Ki in assay [1] amounted to 50 nM.

Take `Cc1cc(C)c2[nH]c(=O)c(=O)[nH]c2c1` [Me H Me H, 5,7-Dimethyl-1,4-dihydro-2,3-quinoxalinedione]: the Ki in assay [1] was 1700 nM.

On to `O=c1[nH]c2cc(F)c(Br)c([N+](=O)[O-])c2[nH]c1=O` [NO2 Br F H, 6-Bromo-7-Fluoro-5-nitro-1,4-dihydroquinoxaline-2,3-dione], for which, in the assay with mice (iv, Table III, i.v. injection), the ED50 was determined as 3.5 mg/kg. On glycine binding site (Table III, read-out: Ki), the inhibitory constant (Ki) stood at 43 nM.

The ED50 is the midpoint of the dose-response relation. Broadly, the Ki is a dissociation constant, usually derived from enzyme kinetics or from competition with a known ligand.
